# Where two headings read alike, the source gives them in different places. Numbered stars: 1 amine (or outer) side, 2 acyl side, 3 side chain; on linkers, the order of the positions; unused ones are H or OH. Square brackets hold non-standard residues; d marks the D form. Side chains are listed from the residue outwards. Peptide text beside a SMILES is read from it. * marks the point of attachment. γGlu = O=C(O)[C@H](CCC(=O)[*:2])N[*:1]; Stearoyl = CCCCCCCCCCCCCCCCCC(=O)*; Palmitoyl = CCCCCCCCCCCCCCCC(=O)*; αMeF = C[C@](N)(Cc1ccccc1)C(=O)O; Myristoyl = CCCCCCCCCCCCCC(=O)*; αMeK = C[C@](N)(CCCCN)C(=O)O; Lauroyl = CCCCCCCCCCCC(=O)*; αMeS = C[C@](N)(CO)C(=O)O; AEEA = NCCOCCOCC(=O)O; Aib = CC(C)(N)C(=O)O
# Experiments:
# [1] = biological target: T1, human glucagon receptor (GCGR) (Homo sapiens, UniProt P47871); experiment: cAMP assay, human GCGR cells; type: cell-based; conditions: Table 9, bis-lipidated peptides
# T1 construct: expressed in transfected cells; host or cells: HEK293 cells or CHO cells
# T1 sequence (P47871 26-477): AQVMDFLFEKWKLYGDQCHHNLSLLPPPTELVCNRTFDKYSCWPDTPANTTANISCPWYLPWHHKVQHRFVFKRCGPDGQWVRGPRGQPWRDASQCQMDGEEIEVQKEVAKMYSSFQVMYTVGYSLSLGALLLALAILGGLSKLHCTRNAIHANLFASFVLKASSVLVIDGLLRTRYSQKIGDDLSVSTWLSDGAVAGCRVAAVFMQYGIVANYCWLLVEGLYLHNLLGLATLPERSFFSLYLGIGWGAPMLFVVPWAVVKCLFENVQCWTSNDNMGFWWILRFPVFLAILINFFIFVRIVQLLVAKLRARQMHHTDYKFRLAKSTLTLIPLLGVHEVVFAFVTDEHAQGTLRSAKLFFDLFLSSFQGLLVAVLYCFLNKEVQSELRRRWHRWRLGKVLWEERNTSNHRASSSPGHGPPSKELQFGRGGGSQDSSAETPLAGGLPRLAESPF
# Method: (§1) Sample dilutions are made in duplicate.
# (§2) A frozen cryo-vial of cells expressing the receptor of interest is thawed rapidly in a water-bath, transferred to pre-warmed assay buffer and spun at 240×g for 5 minutes. Cells are re-suspended in assay buffer at a batch-dependent optimized concentration (e.g. hGCGR cells at 2×10^5 cells/ml, hGLP-1R and hGIPR cells at 1×10^5 cells/ml).
# (§3) To this, 5 μL cell suspension is added and the plates incubated at room temperature for 30 minutes.
# (§4) cAMP levels are measured using a commercially available cAMP dynamic 2 HTRF kit (Cisbio, Cat #62AM4PEJ), following the two step protocol as per manufacturer's recommendations. In brief; anti-cAMP cryptate (donor fluorophore) and cAMP-d2 (acceptor fluorophore) are made up separately by diluting each 1/20 in conjugate & lysis buffer provided in the kit. 5 μL anti-cAMP cryptate is added to wells of the assay plate, and 5 μL cAMP-d2 is added to wells except non-specific binding (NSB) wells, to which conjugate and lysis buffer are added. […] EC50 values of the synthetic peptides determined in cAMP assays are then determined.
# (§5) Data is transformed to % Delta F as described in the manufacturer's guidelines and analyzed by 4-parameter logistic fit to determine EC50 values. […] To compare the balance of activities at the GLP-1R and GCGR between different peptides and across different conditions, these can be correlated, where the EC50's are related to those of comparator peptides.
# [2] = biological target: T2, human glucose-dependent insulinotropic peptide receptor (GIPR) (Homo sapiens, UniProt P48546); experiment: cAMP assay, human GIPR cells; type: cell-based; conditions: Table 9, bis-lipidated peptides
# T2 construct: expressed in transfected cells; host or cells: HEK293 cells or CHO cells
# T2 sequence (P48546 22-466): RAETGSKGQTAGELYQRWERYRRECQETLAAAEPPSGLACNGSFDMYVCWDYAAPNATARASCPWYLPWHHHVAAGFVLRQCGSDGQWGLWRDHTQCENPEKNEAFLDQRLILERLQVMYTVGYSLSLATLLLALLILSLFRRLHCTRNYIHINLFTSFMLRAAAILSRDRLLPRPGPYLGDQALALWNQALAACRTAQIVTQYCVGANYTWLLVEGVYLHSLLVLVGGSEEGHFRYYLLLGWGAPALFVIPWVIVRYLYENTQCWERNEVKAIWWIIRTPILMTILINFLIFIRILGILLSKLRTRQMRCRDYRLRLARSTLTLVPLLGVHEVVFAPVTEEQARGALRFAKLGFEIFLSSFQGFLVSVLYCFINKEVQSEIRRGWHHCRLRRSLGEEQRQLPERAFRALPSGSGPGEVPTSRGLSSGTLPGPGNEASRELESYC
# Method: as §1, §2, §3, §4, §5
# [3] = first replicate, read-out: Primary assay EC50 Gluc-R (n1)
# [4] = second replicate, read-out: Primary assay EC50 Gluc-R (n2)
# [5] = first replicate, read-out: Primary assay EC50 GIP-R (n1)
# [6] = second replicate, read-out: Primary assay EC50 GIP-R (n2)
Structure (SMILES),"EC50 [1, 3]","EC50 [1, 4]","EC50 [2, 5]","EC50 [2, 6]"
CCCCCCCCCCCC(=O)N[C@@H](CCC(=O)NCCOCCOCC(=O)NCCOCCOCC(=O)NCCCC[C@H](NC(=O)[C@H](C)NC(=O)[C@@H](NC(=O)[C@H](Cc1ccccc1)NC(=O)[C@H](CCC(=O)O)NC(=O)[C@](C)(CCCCN)NC(=O)[C@H](C)NC(=O)[C@H](C)NC(=O)[C@H](CCC(=O)O)NC(=O)CNC(=O)[C@H](CCC(=O)O)NC(=O)[C@H](CC(C)C)NC(=O)[C@H](Cc1ccc(O)cc1)NC(=O)[C@H](CO)NC(=O)[C@H](CO)NC(=O)[C@H](CCCCNC(=O)COCCOCCNC(=O)COCCOCCNC(=O)CC[C@H](NC(=O)CCCCCCCCCCC)C(=O)O)NC(=O)[C@H](CC(=O)O)NC(=O)[C@H](CO)NC(=O)[C@@H](NC(=O)[C@](C)(Cc1ccccc1)NC(=O)[C@H](CO)NC(=O)CNC(=O)[C@H](CCC(=O)O)NC(=O)C(C)(C)NC(=O)[C@@H](N)Cc1c[nH]cn1)[C@@H](C)O)[C@@H](C)CC)C(=O)N[C@H](C(=O)N[C@H](C(=O)N[C@@H](CCC(=O)O)C(=O)NCC(=O)NCC(N)=O)C(C)C)C(C)C)C(=O)O [compound 257] (H-H[Aib]EGS[αMeF]TSDK([AEEA-AEEA-γGlu-Lauroyl])SSYLEGEAA[αMeK]EFIAK([AEEA-AEEA-γGlu-Lauroyl])VVEGG-NH2),≥ 22.8 nM,≥ 22.8 nM,≥ 22.8 nM,≥ 22.8 nM
CCCCCCCCCCCC(=O)N[C@@H](CCC(=O)NCCOCCOCC(=O)NCCOCCOCC(=O)NCCCC[C@H](NC(=O)[C@H](CC(=O)O)NC(=O)[C@H](CO)NC(=O)[C@@H](NC(=O)[C@](C)(Cc1ccccc1)NC(=O)[C@H](CO)NC(=O)CNC(=O)[C@H](CCC(=O)O)NC(=O)C(C)(C)NC(=O)[C@@H](N)Cc1c[nH]cn1)[C@@H](C)O)C(=O)N[C@@H](CO)C(=O)N[C@@H](CO)C(=O)N[C@@H](Cc1ccc(O)cc1)C(=O)N[C@@H](CC(C)C)C(=O)N[C@@H](CCC(=O)O)C(=O)NCC(=O)N[C@@H](CCC(=O)O)C(=O)N[C@@H](C)C(=O)N[C@@H](C)C(=O)N[C@@](C)(CCCCN)C(=O)N[C@@H](CCC(=O)O)C(=O)N[C@@H](Cc1ccccc1)C(=O)N[C@H](C(=O)N[C@@H](C)C(=O)N[C@@H](Cc1c[nH]c2ccccc12)C(=O)N[C@@H](CCCCNC(=O)COCCOCCNC(=O)COCCOCCNC(=O)CC[C@H](NC(=O)CCCCCCCCCCC)C(=O)O)C(=O)N[C@H](C(=O)N[C@@H](CCC(=O)O)C(=O)NCC(=O)NCC(N)=O)C(C)C)[C@@H](C)CC)C(=O)O [compound 258] (H-H[Aib]EGS[αMeF]TSDK([AEEA-AEEA-γGlu-Lauroyl])SSYLEGEAA[αMeK]EFIAWK([AEEA-AEEA-γGlu-Lauroyl])VEGG-NH2),≥ 22.3 nM,≥ 22.3 nM,≥ 22.3 nM,≥ 22.3 nM
CCCCCCCCCCCC(=O)N[C@@H](CCC(=O)NCCOCCOCC(=O)NCCOCCOCC(=O)NCCCC[C@H](NC(=O)[C@H](CO)NC(=O)[C@](C)(CO)NC(=O)[C@@H](NC(=O)[C@H](CC(=O)O)NC(=O)[C@H](CO)NC(=O)[C@@H](NC(=O)[C@](C)(Cc1ccccc1)NC(=O)[C@H](CO)NC(=O)CNC(=O)[C@H](CCC(=O)O)NC(=O)C(C)(C)NC(=O)[C@@H](N)Cc1c[nH]cn1)[C@@H](C)O)C(C)C)C(=O)N[C@@H](CC(C)C)C(=O)N[C@@H](CCC(=O)O)C(=O)NCC(=O)N[C@@H](CCC(=O)O)C(=O)N[C@@H](C)C(=O)N[C@@H](C)C(=O)N[C@@](C)(CCCCN)C(=O)N[C@@H](CCC(=O)O)C(=O)N[C@@H](Cc1ccccc1)C(=O)N[C@H](C(=O)N[C@@H](CCCCNC(=O)COCCOCCNC(=O)COCCOCCNC(=O)CC[C@H](NC(=O)CCCCCCCCCCC)C(=O)O)C(=O)N[C@@H](Cc1c[nH]c2ccccc12)C(=O)N[C@H](C(=O)N[C@H](C(=O)N[C@@H](CCC(=O)O)C(=O)NCC(=O)NCC(N)=O)C(C)C)C(C)C)[C@@H](C)CC)C(=O)O [compound 262] (H-H[Aib]EGS[αMeF]TSDV[αMeS]SK([AEEA-AEEA-γGlu-Lauroyl])LEGEAA[αMeK]EFIK([AEEA-AEEA-γGlu-Lauroyl])WVVEGG-NH2; N-terminus assumed),≥ 22.5 nM,≥ 22.5 nM,≥ 22.5 nM,≥ 22.5 nM
CCCCCCCCCCCCCC(=O)N[C@@H](CCC(=O)NCCOCCOCC(=O)NCCOCCOCC(=O)NCCCC[C@H](NC(=O)[C@H](C)NC(=O)[C@@H](NC(=O)[C@](C)(Cc1ccccc1)NC(=O)[C@H](CCC(=O)O)NC(=O)[C@](C)(CCCCN)NC(=O)[C@H](C)NC(=O)[C@H](C)NC(=O)[C@H](CCC(=O)O)NC(=O)CNC(=O)[C@H](CCC(=O)O)NC(=O)[C@H](CC(C)C)NC(=O)[C@H](CCCCNC(=O)COCCOCCNC(=O)COCCOCCNC(=O)CC[C@H](NC(=O)CCCCCCCCCCCCC)C(=O)O)NC(=O)[C@H](CO)NC(=O)[C@](C)(CO)NC(=O)[C@@H](NC(=O)[C@H](CC(=O)O)NC(=O)[C@H](CO)NC(=O)[C@@H](NC(=O)[C@](C)(Cc1ccccc1)NC(=O)[C@H](CO)NC(=O)CNC(=O)[C@H](CCC(=O)O)NC(=O)C(C)(C)NC(=O)[C@@H](N)Cc1c[nH]cn1)[C@@H](C)O)C(C)C)[C@@H](C)CC)C(=O)N[C@H](C(=O)N[C@H](C(=O)N[C@@H](CCC(=O)O)C(=O)NCC(=O)NCC(N)=O)C(C)C)C(C)C)C(=O)O [compound 408] (H-H[Aib]EGS[αMeF]TSDV[αMeS]SK([AEEA-AEEA-γGlu-Myristoyl])LEGEAA[αMeK]E[αMeF]IAK([AEEA-AEEA-γGlu-Myristoyl])VVEGG-NH2),≥ 21.5 nM,≥ 21.5 nM,≥ 21.5 nM,≥ 21.5 nM

# The remaining lines, values ahead:
"EC50 [1, 3]","EC50 [1, 4]","EC50 [2, 5]","EC50 [2, 6]",Structure (SMILES)
≥ 21.5 nM,≥ 21.5 nM,≥ 21.5 nM,≥ 21.5 nM,CCCCCCCCCCCCCCCC(=O)N[C@@H](CCC(=O)NCCOCCOCC(=O)NCCOCCOCC(=O)NCCCC[C@H](NC(=O)[C@H](C)NC(=O)[C@@H](NC(=O)[C@](C)(Cc1ccccc1)NC(=O)[C@H](CCC(=O)O)NC(=O)[C@](C)(CCCCN)NC(=O)[C@H](C)NC(=O)[C@H](C)NC(=O)[C@H](CCC(=O)O)NC(=O)CNC(=O)[C@H](CCC(=O)O)NC(=O)[C@H](CC(C)C)NC(=O)[C@H](CCCCNC(=O)COCCOCCNC(=O)COCCOCCNC(=O)CC[C@H](NC(=O)CCCCCCCCCCCCCCC)C(=O)O)NC(=O)[C@H](CO)NC(=O)[C@](C)(CO)NC(=O)[C@@H](NC(=O)[C@H](CC(=O)O)NC(=O)[C@H](CO)NC(=O)[C@@H](NC(=O)[C@](C)(Cc1ccccc1)NC(=O)[C@H](CO)NC(=O)CNC(=O)[C@H](CCC(=O)O)NC(=O)C(C)(C)NC(=O)[C@@H](N)Cc1c[nH]cn1)[C@@H](C)O)C(C)C)[C@@H](C)CC)C(=O)N[C@H](C(=O)N[C@H](C(=O)N[C@@H](CCC(=O)O)C(=O)NCC(=O)NCC(N)=O)C(C)C)C(C)C)C(=O)O [compound 409] (H-H[Aib]EGS[αMeF]TSDV[αMeS]SK([AEEA-AEEA-γGlu-Palmitoyl])LEGEAA[αMeK]E[αMeF]IAK([AEEA-AEEA-γGlu-Palmitoyl])VVEGG-NH2; N-terminus assumed)
≥ 21.5 nM,≥ 21.5 nM,≥ 21.5 nM,≥ 21.5 nM,CCCCCCCCCCCCCCCCCC(=O)N[C@@H](CCC(=O)NCCOCCOCC(=O)NCCOCCOCC(=O)NCCCC[C@H](NC(=O)[C@H](C)NC(=O)[C@@H](NC(=O)[C@](C)(Cc1ccccc1)NC(=O)[C@H](CCC(=O)O)NC(=O)[C@](C)(CCCCN)NC(=O)[C@H](C)NC(=O)[C@H](C)NC(=O)[C@H](CCC(=O)O)NC(=O)CNC(=O)[C@H](CCC(=O)O)NC(=O)[C@H](CC(C)C)NC(=O)[C@H](CCCCNC(=O)COCCOCCNC(=O)COCCOCCNC(=O)CC[C@H](NC(=O)CCCCCCCCCCCCCCCCC)C(=O)O)NC(=O)[C@H](CO)NC(=O)[C@](C)(CO)NC(=O)[C@@H](NC(=O)[C@H](CC(=O)O)NC(=O)[C@H](CO)NC(=O)[C@@H](NC(=O)[C@](C)(Cc1ccccc1)NC(=O)[C@H](CO)NC(=O)CNC(=O)[C@H](CCC(=O)O)NC(=O)C(C)(C)NC(=O)[C@@H](N)Cc1c[nH]cn1)[C@@H](C)O)C(C)C)[C@@H](C)CC)C(=O)N[C@H](C(=O)N[C@H](C(=O)N[C@@H](CCC(=O)O)C(=O)NCC(=O)NCC(N)=O)C(C)C)C(C)C)C(=O)O [compound 410] (H-H[Aib]EGS[αMeF]TSDV[αMeS]SK([AEEA-AEEA-γGlu-Stearoyl])LEGEAA[αMeK]E[αMeF]IAK([AEEA-AEEA-γGlu-Stearoyl])VVEGG-NH2; N-terminus assumed)
